Test results: ChEMBL document CHEMBL3826900, “Inhibitors for the bacterial ectonucleotidase Lp1NTPDase from Legionella pneumophila” (Bioorg Med Chem, 2016)
Activity calls are given as the source filed them. No cut-off for these calls is given here.

Legend:
[1] = system: Legionella pneumophila 130b; experiment: Inhibition of recombinant Legionella pneumophila 130b His6-tagged NTPDase (41 to 393 residues) expressed in Escherichia coli BL21(DE3) cells using ADP as substrate at 30 uM incubated for 10 mins by capillary electrophoresis method relative to control
[2] = Inhibition of recombinant Legionella pneumophila 130b His6-tagged NTPDase (41 to 393 residues) expressed in Escherichia coli BL21(DE3) cells using ADP as substrate incubated for 10 mins by capillary electrophoresis method
[3] = system: Legionella pneumophila 130b; experiment: Competitive inhibition of recombinant Legionella pneumophila 130b His6-tagged NTPDase (41 to 393 residues) expressed in Escherichia coli BL21(DE3) cells at 3 to 6 uM incubated for 10 mins in presence of varying levels of ADP by Lineweaver-Burk plot analysis
[4] = system: Legionella pneumophila 130b; conditions: 3 uM
[5] = Inhibition of recombinant Legionella pneumophila 130b His6-tagged NTPDase (41 to 393 residues) expressed in Escherichia coli BL21(DE3) cells using ADP as substrate incubated for 10 mins by Cheng-Prusoff equation analysis
[6] = molecular target: T1, Ectonucleoside triphosphate diphosphohydrolase 1 (Homo sapiens, UniProt P49961); experiment: Inhibition of recombinant human NTPDase1 expressed in CHO cells using ADP as substrate incubated for 10 mins by capillary electrophoresis method
T1 sequence (P49961 whole entry): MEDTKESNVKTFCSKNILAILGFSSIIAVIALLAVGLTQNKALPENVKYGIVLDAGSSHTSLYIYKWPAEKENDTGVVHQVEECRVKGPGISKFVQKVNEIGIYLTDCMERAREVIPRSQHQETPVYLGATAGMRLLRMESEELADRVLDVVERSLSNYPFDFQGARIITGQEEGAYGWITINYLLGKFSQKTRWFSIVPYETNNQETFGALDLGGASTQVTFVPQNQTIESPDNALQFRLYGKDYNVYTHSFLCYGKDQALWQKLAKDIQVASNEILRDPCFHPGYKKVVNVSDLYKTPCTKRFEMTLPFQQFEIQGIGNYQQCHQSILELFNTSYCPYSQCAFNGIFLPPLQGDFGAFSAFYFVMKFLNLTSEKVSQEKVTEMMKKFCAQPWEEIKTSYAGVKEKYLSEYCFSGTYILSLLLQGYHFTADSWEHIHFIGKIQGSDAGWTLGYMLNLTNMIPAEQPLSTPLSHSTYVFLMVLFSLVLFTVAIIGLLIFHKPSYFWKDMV

[7] = molecular target: T2, Ectonucleoside triphosphate diphosphohydrolase 2 (Homo sapiens, UniProt Q9Y5L3); experiment: Inhibition of recombinant human NTPDase2 expressed in CHO cells using ADP as substrate incubated for 10 mins by capillary electrophoresis method
T2 sequence (Q9Y5L3 whole entry): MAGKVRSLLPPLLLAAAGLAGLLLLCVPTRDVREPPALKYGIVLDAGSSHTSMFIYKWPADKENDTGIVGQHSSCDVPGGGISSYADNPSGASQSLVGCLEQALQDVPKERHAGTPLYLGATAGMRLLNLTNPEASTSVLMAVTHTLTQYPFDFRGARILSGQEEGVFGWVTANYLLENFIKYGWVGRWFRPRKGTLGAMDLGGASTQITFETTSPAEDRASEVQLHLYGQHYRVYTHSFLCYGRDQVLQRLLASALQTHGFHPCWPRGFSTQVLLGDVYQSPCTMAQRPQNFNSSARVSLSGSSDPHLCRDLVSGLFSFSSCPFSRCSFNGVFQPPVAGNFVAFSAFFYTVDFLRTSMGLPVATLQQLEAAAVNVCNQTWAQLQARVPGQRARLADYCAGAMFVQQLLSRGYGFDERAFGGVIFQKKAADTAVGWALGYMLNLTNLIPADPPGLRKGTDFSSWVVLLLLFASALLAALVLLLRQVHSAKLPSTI

[8] = molecular target: T3, Ectonucleoside triphosphate diphosphohydrolase 3 (Homo sapiens) (UniProt O75355); experiment: Inhibition of recombinant human NTPDase3 expressed in mouse NS0 cells using ADP as substrate at 30 uM incubated for 10 mins by capillary electrophoresis method relative to control
T3 sequence (whole entry): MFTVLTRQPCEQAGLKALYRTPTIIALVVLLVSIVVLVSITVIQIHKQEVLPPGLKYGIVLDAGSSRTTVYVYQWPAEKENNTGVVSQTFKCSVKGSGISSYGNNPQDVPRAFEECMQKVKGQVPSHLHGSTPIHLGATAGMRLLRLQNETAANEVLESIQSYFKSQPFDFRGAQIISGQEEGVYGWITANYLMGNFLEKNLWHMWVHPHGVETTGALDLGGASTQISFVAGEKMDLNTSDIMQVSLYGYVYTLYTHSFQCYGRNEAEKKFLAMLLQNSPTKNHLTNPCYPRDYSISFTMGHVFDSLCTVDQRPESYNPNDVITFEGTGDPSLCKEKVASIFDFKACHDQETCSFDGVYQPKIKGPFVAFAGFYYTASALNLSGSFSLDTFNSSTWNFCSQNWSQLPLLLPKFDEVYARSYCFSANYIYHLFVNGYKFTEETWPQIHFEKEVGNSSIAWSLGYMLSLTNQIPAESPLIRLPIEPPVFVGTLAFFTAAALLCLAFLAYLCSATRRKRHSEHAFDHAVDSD

[9] = system: Legionella pneumophila 130b; conditions: 3 uM; remark: listed apart in the source
[10] = system: Legionella pneumophila 130b; conditions: 6 uM
[11] = system: Legionella pneumophila 130b; conditions: 6 uM; remark: listed apart in the source
[12] = Inhibition of Legionella pneumophila NTPDase

Structure (SMILES)	inhibition [1]	further results
Cc1cc(C)c(Nc2cc(S(=O)(=O)O)c(N)c3c2C(=O)c2ccccc2C3=O)c(C)c1	44%	–
Nc1c(S(=O)(=O)O)cc(Nc2cc3ccccc3c3ccccc23)c2c1C(=O)c1ccccc1C2=O	90%	IC50 [2]: 4.24 µM; inhibition [3]: Active; Km [4]: 623 µM; Ki [5]: 2.99 µM; IC50 [6]: 20 µM; IC50 [7]: 3 µM; inhibition [8]: 18%; Vmax [9]: 327 µmol/min/mg; Vmax [10]: 272 µmol/min/mg; Km [11]: 710 µM
Nc1c(S(=O)(=O)O)cc(Nc2cccc3cc(S(=O)(=O)O)ccc23)c2c1C(=O)c1ccccc1C2=O	30%	–
Nc1c(S(=O)(=O)O)cc(Nc2ccccc2)c2c1C(=O)c1ccccc1C2=O	31%	–
Nc1c(S(=O)(=O)O)cc(Nc2cccc([N+](=O)[O-])c2)c2c1C(=O)c1ccccc1C2=O	44%	–
Nc1c(S(=O)(=O)O)cc(NCCc2ccccc2)c2c1C(=O)c1ccccc1C2=O	inactive	–
COc1ccccc1Oc1ccc(Nc2cc(S(=O)(=O)O)c(N)c3c2C(=O)c2ccccc2C3=O)cc1	28%	–
Nc1c(S(=O)(=O)O)cc(Nc2ccc3ccccc3c2)c2c1C(=O)c1ccccc1C2=O	51%	–
Nc1c(S(=O)(=O)O)cc(Nc2cccc(Br)c2)c2c1C(=O)c1ccccc1C2=O	44%	–
Cc1ccc2ccccc2c1Nc1cc(S(=O)(=O)O)c(N)c2c1C(=O)c1ccccc1C2=O	76%	IC50 [2]: 13.6 µM; Ki [5]: 9.58 µM
Nc1c(S(=O)(=O)O)cc(NC2CCCCC2)c2c1C(=O)c1ccccc1C2=O	22%	–
Nc1c(S(=O)(=O)O)cc(Nc2ccccc2F)c2c1C(=O)c1ccccc1C2=O	inactive	–
Nc1c(S(=O)(=O)O)cc(Nc2cccc3c(S(=O)(=O)O)cccc23)c2c1C(=O)c1ccccc1C2=O	26%	–
Nc1c(S(=O)(=O)O)cc(Nc2ccc3cc(C(=O)O)ccc3c2)c2c1C(=O)c1ccccc1C2=O	32%	–
Cc1ccccc1Nc1cc(S(=O)(=O)O)c(N)c2c1C(=O)c1ccccc1C2=O	44%	–
Nc1c(S(=O)(=O)O)cc(Nc2ccc(Nc3nc(Cl)nc(Nc4ccccc4S(=O)(=O)O)n3)c(S(=O)(=O)O)c2)c2c1C(=O)c1ccccc1C2=O	45%	–
Nc1c(S(=O)(=O)O)cc(Nc2cccc3ccccc23)c2c1C(=O)c1ccccc1C2=O	62%	IC50 [2]: 12.2 µM; Ki [5]: 8.59 µM
Nc1c(S(=O)(=O)O)cc(Nc2ccc(Nc3nc(Cl)nc(Cl)n3)c(S(=O)(=O)O)c2)c2c1C(=O)c1ccccc1C2=O	8%	–
Cc1cccc(Nc2cc(S(=O)(=O)O)c(N)c3c2C(=O)c2ccccc2C3=O)c1	53%	–
CCc1ccccc1Nc1cc(S(=O)(=O)O)c(N)c2c1C(=O)c1ccccc1C2=O	39%	–
CCN(CC)c1ncnc2c1ncn2[C@@H]1O[C@H](COP(=O)(O)OP(=O)(O)OC(Br)(Br)P(=O)(O)O)[C@@H](O)[C@H]1O	–	Ki [12]: 500 µM
CCCNc1cc(S(=O)(=O)O)c(N)c2c1C(=O)c1ccccc1C2=O	inactive	–
CCOP(=O)(Cc1ccc(Nc2cc(S(=O)(=O)O)c(N)c3c2C(=O)c2ccccc2C3=O)cc1)OCC	inactive	–
Nc1c(S(=O)(=O)O)cc(Nc2ccc(Cl)cc2)c2c1C(=O)c1ccccc1C2=O	66%	IC50 [2]: 17.6 µM; Ki [5]: 12.4 µM
